Patent US20230116972A1, “CD38 MODULATORS AND METHODS OF USE THEREOF” (Cytokinetics, Inc., priority 2021, published 2023)

How the values were obtained:
human CD38 = biological target: T1, human CD38 (Homo sapiens, UniProt P28907); assay: human recombinant CD38 enzyme assay (hydrolysis of NAD+); assay type: biochemical; details: human recombinant CD38, 0.4 nM enzyme, 62.5 μM NAD+; read-out: hCD38 BioChem IC50
T1 sequence (P28907 1-300): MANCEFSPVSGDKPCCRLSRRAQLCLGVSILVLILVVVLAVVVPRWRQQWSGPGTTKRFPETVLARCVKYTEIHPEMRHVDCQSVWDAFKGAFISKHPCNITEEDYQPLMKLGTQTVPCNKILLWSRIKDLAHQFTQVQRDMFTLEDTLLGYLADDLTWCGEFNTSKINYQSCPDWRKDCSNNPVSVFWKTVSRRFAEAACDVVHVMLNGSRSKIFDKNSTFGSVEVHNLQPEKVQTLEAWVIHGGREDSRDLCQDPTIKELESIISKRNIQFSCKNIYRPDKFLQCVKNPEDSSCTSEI
Method in brief: (§1)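 Residual NAD+ after 60 min of cell-free hydrolysis by recombinant mouse or human CD38 at ambient temperature, measured over a dose range. Detection used ADH conversion to NADH, then diaphorase-coupled resazurin-to-resorufin fluorescence (Ex/Em 540/590 nm).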

[1] = biological target: T2, endogenous CD38 in HL60 cells (Homo sapiens, UniProt P28907); assay: cellular CD38 assay in HL60 cells (cellular NAD levels); assay type: cell-based; details: all-trans retinoic acid, 24 hours, read-out: hCD38 HL60 ATRA NAD Cell Diaphorase IC50
T2 construct: endogenous in cells; host or cells: HL60 (leukemic cells, treated with all-trans retinoic acid)
T2 sequence (P28907 1-300): T1 sequence (P28907 1-300)
Method in brief: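 Endogenous CD38 inhibition is inferred from NAD levels in HL60 cells after 24 h compound exposure at 20000 cells per well. A lytic cycling readout (0.2 U/mL diaphorase, 0.8 U/mL alcohol dehydrogenase, resazurin, FMN, ethanol, 0.2% Triton X-100, Tris/EDTA pH 8.4) ran 60 min at ambient temperature. Resorufin fluorescence was read at 540/590 nm.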

mouse CD38 = biological target: T3, mouse CD38 (Mus musculus, UniProt P56528); assay: mouse recombinant CD38 enzyme assay (hydrolysis of NAD+); assay type: biochemical; details: read-out: mCD38 BioChem IC50
T3 sequence (P56528 1-304): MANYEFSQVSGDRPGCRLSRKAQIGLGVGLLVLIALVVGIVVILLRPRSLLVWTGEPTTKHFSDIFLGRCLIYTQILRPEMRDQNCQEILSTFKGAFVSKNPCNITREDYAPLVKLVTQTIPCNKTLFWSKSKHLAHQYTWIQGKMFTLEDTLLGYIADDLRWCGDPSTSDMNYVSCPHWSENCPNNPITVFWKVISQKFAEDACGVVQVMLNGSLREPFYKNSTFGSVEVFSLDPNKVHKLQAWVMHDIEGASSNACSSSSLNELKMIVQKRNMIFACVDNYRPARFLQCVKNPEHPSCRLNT
Method in brief: as §1

Structure (SMILES) | IC50 (human CD38) | IC50 [1] | IC50 (mouse CD38)
Cc1cc(C(=O)NC2CC3(C2)CC(F)(F)C3)nc(-c2cncn2C)n1 [Compound 124, N-(6,6-difluorospiro[3.3]heptan-2-yl)-6-methyl-2-(1-methyl-1H-imidazol-5-yl)pyrimidine-4-carboxamide] | 17 nM | 1400 nM | 1 nM
COc1cc(C(=O)Nc2ccc(C(F)F)nc2)nc(-n2ccnc2)c1 [Compound 187, N-(6-(difluoromethyl)pyridin-3-yl)-6-(1H-imidazol-1-yl)-4-methoxypicolinamide] | 3.1 nM | 253 nM | 1.9 nM
Cc1cc(-n2ccnc2)nc(C(=O)Nc2ccc(C(F)F)nc2)n1 [Compound 215, N-(6-(difluoromethyl)pyridin-3-yl)-4-(1H-imidazol-1-yl)-6-methylpyrimidine-2-carboxamide] | 2 nM | 214 nM | 1.6 nM
Cn1cncc1-c1ccnc(C(=O)N[C@H]2C[C@H](c3ccccc3F)C2)n1 [Compound 240, N-((1r,3r)-3-(2-fluorophenyl)cyclobutyl)-4-(1-methyl-1H-imidazol-5-yl)pyrimidine-2-carboxamide] | 27.9 nM | 2060 nM | 13.3 nM
COCCOc1cc(C(=O)Nc2ccc(C(F)F)nc2)nc(-c2cncn2C)n1 [Compound 307, N-(6-(difluoromethyl)pyridin-3-yl)-6-(2-methoxyethoxy)-2-(1-methyl-1H-imidazol-5-yl)pyrimidine-4-carboxamide] | 1.5 nM | 254 nM | 1 nM
O=C(Nc1ccc(C(F)(F)F)nc1)c1ccnc(-n2ccnc2)n1 [Compound 67, 2-(1H-imidazol-1-yl)-N-(6-(trifluoromethyl)pyridin-3-yl)pyrimidine-4-carboxamide] | 4 nM | 409 nM | 9 nM
Cn1cncc1-c1nc(C(=O)N[C@H]2CC[C@H](C(F)F)CC2)cc(C(F)(F)F)n1 [Compound 152, N-((1r,4r)-4-(difluoromethyl)cyclohexyl)-2-(1-methyl-1H-imidazol-5-yl)-6-(trifluoromethyl)pyrimidine-4-carboxamide] | 13 nM | 2350 nM | 1 nM
CO[C@H]1CC[C@H](NC(=O)c2nc(-c3cncn3C)cnc2N)CC1 [Compound 318, 3-amino-N-((1r,4r)-4-methoxycyclohexyl)-6-(1-methyl-1H-imidazol-5-yl)pyrazine-2-carboxamide] | 18.5 nM | 1920 nM | 13.4 nM
O=C(NC1CCC(F)(F)CC1)c1cc(C2CCOCC2)nc(-n2ccnc2)n1 [Compound 194, N-(4,4-difluorocyclohexyl)-2-(1H-imidazol-1-yl)-6-(tetrahydro-2H-pyran-4-yl)pyrimidine-4-carboxamide] | 111 nM | 7160 nM | 63.6 nM
Cn1cncc1-c1nc(C(=O)N[C@@H]2C[C@@H]3[C@H](C2)C3(F)F)cc(C2CCOCC2)n1 [Compound 280, N-((1R,3s,5S)-6,6-difluorobicyclo[3.1.0]hexan-3-yl)-2-(1-methyl-1H-imidazol-5-yl)-6-(tetrahydro-2H-pyran-4-yl)pyrimidine-4-carboxamide] | 10.7 nM | 1500 nM | 3.2 nM
COCCO[C@H]1CC[C@H](NC(=O)c2cc(C)nc(-n3ccnc3)n2)CC1 [Compound 156, 2-(1H-imidazol-1-yl)-N-((1r,4r)-4-(2-methoxyethoxy)cyclohexyl)-6-methylpyrimidine-4-carboxamide] | 30 nM | 2300 nM | 4 nM
NC(=O)c1cncn1-c1cccc(C(=O)Nc2ccc(C(F)(F)F)nc2)n1 [Compound 66, 6-(5-carbamoyl-1H-imidazol-1-yl)-N-(6-(trifluoromethyl)pyridin-3-yl)picolinamide] | 91 nM | 3430 nM | 190 nM
O=C(Nc1cncc(F)c1)c1cc(-n2ccnc2)ccn1 [Compound 3, N-(5-fluoropyridin-3-yl)-4-(1H-imidazol-1-yl)picolinamide] | 1090 nM | 6780 nM | 234 nM
O=C(Nc1ccc(C(F)F)nc1)c1ccnc(-n2ccnc2)n1 [Compound 93, N-(6-(difluoromethyl)pyridin-3-yl)-2-(1H-imidazol-1-yl)pyrimidine-4-carboxamide] | 2 nM | 187 nM | 5 nM
CO[C@H]1CC[C@H](NC(=O)c2nc(C3CC3)cc(-n3ccnc3)n2)CC1 [Compound 204, 4-cyclopropyl-6-(1H-imidazol-1-yl)-N-((1r,4r)-4-methoxycyclohexyl)pyrimidine-2-carboxamide] | 123 nM | 8570 nM | 8.8 nM
COc1cc(C(=O)Nc2ccc(C(F)F)nc2)nc(-c2cncn2C)n1 [Compound 129, N-(6-(difluoromethyl)pyridin-3-yl)-6-methoxy-2-(1-methyl-1H-imidazol-5-yl)pyrimidine-4-carboxamide] | 2 nM | 267 nM | 1 nM
Cn1cncc1-c1nccc(C(=O)NC2CC3(C2)CC(F)(F)C3)n1 [Compound 82, N-(6,6-difluorospiro[3.3]heptan-2-yl)-2-(1-methyl-1H-imidazol-5-yl)pyrimidine-4-carboxamide] | 10 nM | 1080 nM | 3 nM
O=C(Nc1ccc(C(F)(F)F)nc1)c1cc(-n2ccnc2)ccn1 [Compound 6, 4-(1H-imidazol-1-yl)-N-(6-(trifluoromethyl)pyridin-3-yl)picolinamide] | 352 nM | 8690 nM | 1580 nM
O=C(N[C@H]1C[C@H](c2ccnc(C(F)(F)F)c2)C1)c1nccc(-n2ccnc2)n1 [Compound 268, 4-(1H-imidazol-1-yl)-N-((1r,3r)-3-(2-(trifluoromethyl)pyridin-4-yl)cyclobutyl)pyrimidine-2-carboxamide] | 35.4 nM | 1400 nM | 96.3 nM

More lines, in order of falling IC50 (human CD38), values ahead:

IC50 (human CD38) | IC50 [1] | IC50 (mouse CD38) | Structure (SMILES)
88 nM | 3370 nM | 29 nM | O=C(NC1CCCOC1)c1cccc(-n2ccnc2)n1 (stereo not drawn) [Compound 49, 6-(1H-imidazol-1-yl)-N-(tetrahydro-2H-pyran-3-yl)picolinamide]
67 nM | 1400 nM | 27 nM | O=C(Nc1ccccc1F)c1cccc(-n2ccnc2)n1 [Compound 17, N-(2-fluorophenyl)-6-(1H-imidazol-1-yl)picolinamide]
66 nM | 2910 nM | 23 nM | COc1cc(C(=O)Nc2ccc(C(F)F)nc2)nc(-c2cncs2)n1 [Compound 131, N-(6-(difluoromethyl)pyridin-3-yl)-6-methoxy-2-(thiazol-5-yl)pyrimidine-4-carboxamide]
25.2 nM | 2220 nM | 11.6 nM | COc1ccc([C@H]2C[C@H](NC(=O)c3nccc(-c4cncn4C)n3)C2)cc1 [Compound 218, N-((1r,3r)-3-(4-methoxyphenyl)cyclobutyl)-4-(1-methyl-1H-imidazol-5-yl)pyrimidine-2-carboxamide]
21 nM | 2950 nM | 5 nM | CC(C)c1cc(C(=O)N[C@H]2CC[C@H](C(F)F)CC2)nc(-c2cncn2C)n1 [Compound 172, N-((1r,4r)-4-(difluoromethyl)cyclohexyl)-6-isopropyl-2-(1-methyl-1H-imidazol-5-yl)pyrimidine-4-carboxamide]
12 nM | 1110 nM | 2 nM | CO[C@H]1CC[C@H](NC(=O)c2ccnc(-c3cncn3C)n2)CC1 [Compound 84, N-((1r,4r)-4-methoxycyclohexyl)-2-(1-methyl-1H-imidazol-5-yl)pyrimidine-4-carboxamide]
8 nM | 867 nM | 7 nM | Cc1ccc(NC(=O)c2cc(C(F)(F)F)nc(-n3ccnc3)n2)cn1 [Compound 137, 2-(1H-imidazol-1-yl)-N-(6-methylpyridin-3-yl)-6-(trifluoromethyl)pyrimidine-4-carboxamide]
4.3 nM | 1010 nM | 5.8 nM | Cn1cncc1-c1ccnc(C(=O)Nc2ccc(C(C)(C)O)cc2)n1 [Compound 358, N-(4-(2-hydroxypropan-2-yl)phenyl)-4-(1-methyl-1H-imidazol-5-yl)pyrimidine-2-carboxamide]
2.8 nM | 229 nM | 1.1 nM | Cc1cc(-c2cncn2C)nc(C(=O)Nc2ccc(C(F)F)nc2)n1 [Compound 202, N-(6-(Difluoromethyl)pyridin-3-yl)-4-methyl-6-(1-methyl-1H-imidazol-5-yl)pyrimidine-2-carboxamide]
